In ChEMBL document CHEMBL3351474, “Ambidalmines A-E and ambidimerine F: bioactive dihydrobenzophenanthridine alkaloids from Corydalis ambigua var. amurensis” (2014):

What was measured:
Type in all cases: functional
[1] = test system: H9c2; assay: Cytoprotective activity against ischemia-hypoxia injury in rat H9c2 cells assessed as increase in cell viability at 10 uM by MTT assay relative to control
[2] = test system: H9c2; assay: Cytoprotective activity against ischemia-hypoxia injury in rat H9c2 cells assessed as increase in cell viability at 1 uM by MTT assay relative to control
[3] = test system: H9c2; assay: Cytoprotective activity against ischemia-hypoxia injury in rat H9c2 cells assessed as increase in cell viability at 0.1 uM by MTT assay relative to control
[4] = test system: H9c2; assay: Cytoprotective activity against ischemia-hypoxia injury in rat H9c2 cells assessed as increase in cell viability at 0.01 uM by MTT assay relative to control

Structure (SMILES)	Activity [1] [%]	Activity [2] [%]	Activity [3] [%]	Activity [4] [%]
COc1cc2c(OC)cc3c(c2cc1OC)N(C)[C@H](CC(=O)C[C@H]1c2c4c(cc(OC)c2-c2cc(OC)c5cc(OC)c(OC)cc5c2N1C)OCO4)c1c2c(cc(OC)c1-3)OCO2	44.75	44.26	50.56	–
COc1cc2c(OC)cc3c(c2cc1OC)N(C)[C@@H](CO)c1c2c(cc(OC)c1-3)OCO2	32.71	49.42	54.72	47.54
COc1cc2c(OC)cc3c(c2cc1OC)N(C)[C@H](CC(C)=O)c1c2c(cc(OC)c1-3)OCO2	29.1	37.74	40.68	42.15
COc1cc2c(OC)cc3c(c2cc1OC)N(C)[C@@H](CC(C)=O)c1c2c(cc(OC)c1-3)OCO2	44.27	45.29	50.09	53.88
COc1cc2c(OC)cc3c(c2cc1OC)N(C)[C@H](CO)c1c2c(cc(OC)c1-3)OCO2	36.62	50.74	46.01	41.38
COc1cc2c(OC)cc3c(c2cc1OC)N(C)C(CC(=O)CC(C)(C)O)c1c2c(cc(OC)c1-3)OCO2 (racemic)	32.63	44.75	41.47	41.8
COc1cc2c(OC)cc3c(c2cc1OC)N(C)[C@@H](CC(=O)C[C@H]1c2c4c(cc(OC)c2-c2cc(OC)c5cc(OC)c(OC)cc5c2N1C)OCO4)c1c2c(cc(OC)c1-3)OCO2	27.48	36.59	41.02	40.26
